From patent US12077503B2, “Substituted cyclic amides and their use as herbicides” (FMC CORPORATION, priority 2015, dated 2024)

Legend:
Format in all cases: in vivo
[1] = system: barnyardgrass (Echinochloa crus-galli); assay: Test G Pre-Emergence Protocol; details: Echinochloa crus-galli, pre-emergence, 312 h, evaluated after 13 days; for pest or weed control at 15.625 g/ha: 15.625 g ai/ha, read-out: Barnyard grass damage rating (100=total damage to plant; 0=no damage to plant); for pest or weed control at 62.5 g/ha: 62.5 g ai/ha, 100=total damage to plant, 0=no damage to plant, read-out: plant damage rating, Barnyardgrass; for pest or weed control at 250 g/ha: 250 g ai/ha, read-out: Barnyardgrass damage rating (100=total damage to plant; 0=no damage to plant)
In short: (§1)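 Glasshouse pre-emergence test: soil-sown seeds, sprayed after 1 d at 15.625, 62.5 or 250 g/ha. Conditions 24/16° C day/night, 14 h light, 65% humidity, watering twice daily. Rating 13 d post-spray (100 = total damage).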

[2] = system: corn (Zea mays); assay: Test G Pre-Emergence Protocol; details: Zea mays, pre-emergence, 312 h, evaluated after 13 days; for plant injury at 15.625 g/ha: 15.625 g ai/ha; for plant injury at 15.625 g/ha / plant injury at 250 g/ha: read-out: Corn damage rating (100=total damage to plant; 0=no damage to plant); for plant injury at 62.5 g/ha: 62.5 g ai/ha, 100=total damage to plant, 0=no damage to plant, read-out: plant damage rating, Corn; for plant injury at 250 g/ha: 250 g ai/ha
In short: as §1

[3] = system: giant foxtail (Setaria faberi); assay: Test G Pre-Emergence Protocol; details: Setaria faberi, pre-emergence, 312 h, evaluated after 13 days; for pest or weed control at 15.625 g/ha: 15.625 g ai/ha; for pest or weed control at 15.625 g/ha / pest or weed control at 250 g/ha: read-out: Foxtail, Giant damage rating (100=total damage to plant; 0=no damage to plant); for pest or weed control at 62.5 g/ha: 62.5 g ai/ha, 100=total damage to plant, 0=no damage to plant, read-out: plant damage rating, Foxtail, Giant; for pest or weed control at 250 g/ha: 250 g ai/ha
In short: as §1

[4] = system: ivy-leaved morning glory (Ipomoea hederacea); assay: Test G Pre-Emergence Protocol; details: Ipomoea, pre-emergence, 312 h, evaluated after 13 days; for pest or weed control at 15.625 g/ha: 15.625 g ai/ha, read-out: Morning-glory, Ivy-leaved damage rating (100=total damage to plant; 0=no damage to plant); for pest or weed control at 62.5 g/ha: 62.5 g ai/ha, 100=total damage to plant, 0=no damage to plant, read-out: plant damage rating, Morningglory, Ivy-leaved; for pest or weed control at 250 g/ha: 250 g ai/ha, read-out: Morningglory, Ivy-leaved damage rating (100=total damage to plant; 0=no damage to plant)
In short: as §1

[5] = system: redroot pigweed (Amaranthus retroflexus); assay: Test G Pre-Emergence Protocol; details: Amaranthus retroflexus, pre-emergence, 312 h, evaluated after 13 days; for pest or weed control at 15.625 g/ha: 15.625 g ai/ha; for pest or weed control at 15.625 g/ha / pest or weed control at 250 g/ha: read-out: Pigweed, Redroot damage rating (100=total damage to plant; 0=no damage to plant); for pest or weed control at 62.5 g/ha: 62.5 g ai/ha, 100=total damage to plant, 0=no damage to plant, read-out: plant damage rating, Pigweed, Redroot; for pest or weed control at 250 g/ha: 250 g ai/ha
In short: as §1

[6] = system: velvetleaf (Abutilon theophrasti); assay: Test G Pre-Emergence Protocol; details: Abutilon theophrasti, pre-emergence, 312 h, evaluated after 13 days; for pest or weed control at 15.625 g/ha: 15.625 g ai/ha; for pest or weed control at 15.625 g/ha / pest or weed control at 250 g/ha: read-out: Velvetleaf damage rating (100=total damage to plant; 0=no damage to plant); for pest or weed control at 62.5 g/ha: 62.5 g ai/ha, 100=total damage to plant, 0=no damage to plant, read-out: plant damage rating, Velvetleaf; for pest or weed control at 250 g/ha: 250 g ai/ha
In short: as §1

[7] = system: barnyardgrass (Echinochloa crus-galli); assay: Test G Post-Emergence Protocol; details: Echinochloa crus-galli, post-emergence, 312 h; for pest or weed control at 15.625 g/ha: 15.625 g ai/ha, evaluated after 13 days (100=total damage to plant; 0=no damage to plant), read-out: Barnyardgrass damage rating; for pest or weed control at 62.5 g/ha: 62.5 g ai/ha, read-out: Barnyardgrass damage rating (100=total damage to plant; 0=no damage to plant); for pest or weed control at 62.5 g/ha / pest or weed control at 250 g/ha: evaluated after 13 days; for pest or weed control at 250 g/ha: 250 g ai/ha, read-out: damage to plant, Barnyardgrass (100=total damage to plant; 0=no damage to plant)
In short: (§2)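 Values are percent visual injury at 13 days after treatment (0 none, 100 total). Treatment was a post-emergence spray at 15.625, 62.5 or 250 g/ha on 8-day-old pot plants kept at 24/16 °C.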

[8] = system: corn (Zea mays); assay: Test G Post-Emergence Protocol; details: Zea mays, post-emergence, 312 h; for plant injury at 15.625 g/ha: 15.625 g ai/ha, evaluated after 13 days (100=total damage to plant; 0=no damage to plant), read-out: Corn damage rating; for plant injury at 62.5 g/ha: 62.5 g ai/ha, read-out: Corn damage rating (100=total damage to plant; 0=no damage to plant); for plant injury at 62.5 g/ha / plant injury at 250 g/ha: evaluated after 13 days; for plant injury at 250 g/ha: 250 g ai/ha, read-out: damage to plant, Corn (100=total damage to plant; 0=no damage to plant)
In short: as §2

[9] = system: giant foxtail (Setaria faberi); assay: Test G Post-Emergence Protocol; details: Setaria faberi, post-emergence, 312 h; for pest or weed control at 15.625 g/ha: 15.625 g ai/ha, evaluated after 13 days (100=total damage to plant; 0=no damage to plant), read-out: Foxtail, Giant damage rating; for pest or weed control at 62.5 g/ha: 62.5 g ai/ha, read-out: Foxtail, Giant damage rating (100=total damage to plant; 0=no damage to plant); for pest or weed control at 62.5 g/ha / pest or weed control at 250 g/ha: evaluated after 13 days; for pest or weed control at 250 g/ha: 250 g ai/ha, read-out: damage to plant, Foxtail, Giant (100=total damage to plant; 0=no damage to plant)
In short: as §2

[10] = system: ivy-leaved morning glory (Ipomoea hederacea); assay: Test G Post-Emergence Protocol; details: Ipomoea, post-emergence, 312 h; for pest or weed control at 15.625 g/ha: 15.625 g ai/ha, evaluated after 13 days (100=total damage to plant; 0=no damage to plant), read-out: Morningglory, Ivy-leaved damage rating; for pest or weed control at 62.5 g/ha: 62.5 g ai/ha, read-out: Morningglory, Ivy-leaved damage rating (100=total damage to plant; 0=no damage to plant); for pest or weed control at 62.5 g/ha / pest or weed control at 250 g/ha: evaluated after 13 days; for pest or weed control at 250 g/ha: 250 g ai/ha, read-out: damage to plant, Morningglory, Ivy-leaved (100=total damage to plant; 0=no damage to plant)
In short: as §2

[11] = system: redroot pigweed (Amaranthus retroflexus); assay: Test G Post-Emergence Protocol; details: Amaranthus retroflexus, post-emergence, 312 h; for pest or weed control at 15.625 g/ha: 15.625 g ai/ha, evaluated after 13 days (100=total damage to plant; 0=no damage to plant), read-out: Pigweed, Redroot damage rating; for pest or weed control at 62.5 g/ha: 62.5 g ai/ha, read-out: Pigweed, Redroot damage rating (100=total damage to plant; 0=no damage to plant); for pest or weed control at 62.5 g/ha / pest or weed control at 250 g/ha: evaluated after 13 days; for pest or weed control at 250 g/ha: 250 g ai/ha, read-out: damage to plant, Pigweed, Redroot (100=total damage to plant; 0=no damage to plant)
In short: as §2

[12] = system: velvetleaf (Abutilon theophrasti); assay: Test G Post-Emergence Protocol; details: Abutilon theophrasti, post-emergence, 312 h; for pest or weed control at 15.625 g/ha: 15.625 g ai/ha, evaluated after 13 days (100=total damage to plant; 0=no damage to plant), read-out: Velvetleaf damage rating; for pest or weed control at 62.5 g/ha: 62.5 g ai/ha, read-out: Velvetleaf damage rating (100=total damage to plant; 0=no damage to plant); for pest or weed control at 62.5 g/ha / pest or weed control at 250 g/ha: evaluated after 13 days; for pest or weed control at 250 g/ha: 250 g ai/ha, read-out: damage to plant, Velvetleaf (100=total damage to plant; 0=no damage to plant)
In short: as §2

SMILES | pest or weed control at 15.625 g/ha [1] [%] | pest or weed control at 62.5 g/ha [1] [%] | pest or weed control at 250 g/ha [1] [%] | plant injury at 15.625 g/ha [2] [%] | plant injury at 62.5 g/ha [2] [%] | plant injury at 250 g/ha [2] [%] | pest or weed control at 15.625 g/ha [3] [%] | pest or weed control at 62.5 g/ha [3] [%] | pest or weed control at 250 g/ha [3] [%] | pest or weed control at 15.625 g/ha [4] [%] | pest or weed control at 62.5 g/ha [4] [%] | pest or weed control at 250 g/ha [4] [%] | pest or weed control at 15.625 g/ha [5] [%] | pest or weed control at 62.5 g/ha [5] [%] | pest or weed control at 250 g/ha [5] [%] | pest or weed control at 15.625 g/ha [6] [%] | pest or weed control at 62.5 g/ha [6] [%] | pest or weed control at 250 g/ha [6] [%] | pest or weed control at 15.625 g/ha [7] [%] | pest or weed control at 62.5 g/ha [7] [%] | also measured
CN1C[C@@H](c2ccc(C(F)(F)F)cc2)[C@H](C(=O)Nc2cccc3c2CCC3)C1=O (racemic) [Compound 1624] | 0 | 0 | 80 | 0 | 0 | 0 | 20 | 60 | 80 | 0 | 0 | 0 | 0 | 0 | 20 | 0 | 0 | 10 | 0 | 20 | pest or weed control at 250 g/ha [7]: 70%; plant injury at 15.625 g/ha [8]: 0%; plant injury at 62.5 g/ha [8]: 10%; plant injury at 250 g/ha [8]: 10%; pest or weed control at 15.625 g/ha [9]: 10%; pest or weed control at 62.5 g/ha [9]: 80%; pest or weed control at 250 g/ha [9]: 80%; pest or weed control at 15.625 g/ha [10]: 10%; pest or weed control at 62.5 g/ha [10]: 20%; pest or weed control at 250 g/ha [10]: 20%; pest or weed control at 15.625 g/ha [11]: 0%; pest or weed control at 62.5 g/ha [11]: 30%; pest or weed control at 250 g/ha [11]: 20%; pest or weed control at 15.625 g/ha [12]: 0%; pest or weed control at 62.5 g/ha [12]: 10%; pest or weed control at 250 g/ha [12]: 10%
Cc1cc(NC(=O)[C@@H]2C(=O)N(C)C[C@H]2c2ccc(C(F)(F)F)cc2)[nH]n1 (racemic) [Compound 1626] | 0 | 0 | 0 | 0 | 0 | 0 | 0 | 0 | 0 | 0 | 0 | 0 | 0 | 0 | 0 | 0 | 0 | 0 | 0 | 0 | pest or weed control at 250 g/ha [7]: 0%; plant injury at 15.625 g/ha [8]: 0%; plant injury at 62.5 g/ha [8]: 0%; plant injury at 250 g/ha [8]: 0%; pest or weed control at 15.625 g/ha [9]: 0%; pest or weed control at 62.5 g/ha [9]: 0%; pest or weed control at 250 g/ha [9]: 0%; pest or weed control at 15.625 g/ha [10]: 0%; pest or weed control at 62.5 g/ha [10]: 0%; pest or weed control at 250 g/ha [10]: 0%; pest or weed control at 15.625 g/ha [11]: 0%; pest or weed control at 62.5 g/ha [11]: 0%; pest or weed control at 250 g/ha [11]: 0%; pest or weed control at 15.625 g/ha [12]: 0%; pest or weed control at 62.5 g/ha [12]: 0%; pest or weed control at 250 g/ha [12]: 0%
